# Source: US12098148B2, “Therapeutic compounds” (C4X Discovery Limited, priority 2018, dated 2024)
# pEC50, pIC50: −log10 of the molar value.
# Tests used:
# [1] = molecular target: human KEAP1 (N-term, residues 321-609) (Homo sapiens, UniProt Q14145); test: biochemical;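 note: fluorescence polarization competition assay of Kelch domain binding to NRF2, 12-point 1:3 dilution series from 10 µM, read after 1 h at room temperature, floor 10 nM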
# [2] = system: NQO1 mRNA in BEAS-2B cells; test: Beas2B NQO1 mRNA cell based assay; set-up: species or system human; conditions: Homo sapiens, BEAS-2B, 24 h, 24 h compound treatment, increase in NQO1 mRNA vs vehicle (0.1% DMSO), read-out: EC50
# Method in brief: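 BEAS-2B human bronchial epithelial cells exposed to compound for 24 h at 37 °C, 5% CO2. NQO1 mRNA measured by one-step TaqMan RT-qPCR on unpurified lysates, normalized to β-actin; relative expression by ΔΔCT method.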
# Chain of human KEAP1 (N-term, residues 321-609) (Q14145 321-609): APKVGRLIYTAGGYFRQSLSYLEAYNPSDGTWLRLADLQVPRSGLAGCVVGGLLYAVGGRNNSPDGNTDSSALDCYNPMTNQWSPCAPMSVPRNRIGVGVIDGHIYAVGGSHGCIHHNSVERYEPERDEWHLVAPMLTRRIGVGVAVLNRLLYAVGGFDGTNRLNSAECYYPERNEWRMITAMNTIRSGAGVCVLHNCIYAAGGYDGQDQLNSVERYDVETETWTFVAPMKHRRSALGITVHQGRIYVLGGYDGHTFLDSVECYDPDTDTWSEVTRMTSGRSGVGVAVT
pIC50 [1],SMILES,pEC50 [2]
8.00,"Cn1nc(COc2ccc(Cl)c3c2[C@@H](CN2CCCC2=O)N(C(=O)[C@@H]2CCCC[C@@H]2C(=O)O)CC3)c2ccccc21 [Example 98, (1S,2R)-2-((S)-5-Chloro-8-((1-methyl-1H-indazol-3-yl)methoxy)-1-((2-oxopyrrolidin-1-yl)methyl)-1,2,3,4-tetrahydroisoquinoline-2-carbonyl) cyclohexane-1-carboxylic acid]",6.48
8.01,"Cn1cnc2ccc(COc3ccc(Cl)c4c3[C@@H](CN3CCCC3=O)N(C(=O)[C@@H]3CCCC[C@@H]3C(=O)O)CC4)nc21 [Example 99, (1S,2R)-2-((S)-5-chloro-8-((3-methyl-3H-imidazo [4,5-b]pyridin-5-yl)methoxy)-1-((2-oxopyrrolidin-1-yl)methyl)-1,2,3,4-tetrahydroisoquinoline-2-carbonyl) cyclohexane-1-carboxylic acid]",6.28
8.29,"C[C@]1(C(=O)O)CCCC[C@H]1C(=O)N1CCc2c(Cl)ccc(OCc3noc4ccccc34)c2[C@H]1CN1CCCC1=O [Example 100, (1S,2R)-2-((S)-8-(benzo[d]isoxazol-3-ylmethoxy)-5-chloro-1-((2-oxopyrrolidin-1-yl)methyl)-1,2,3,4-tetrahydroisoquinoline-2-carbonyl)-1-methylcyclohexane-1-carboxylic acid]",8.47
5.72,"Cn1nnc(COc2ccc(Cl)c3c2[C@@H](CN2CCCC2=O)N(C(=O)C2CC(F)(F)CC2C(=O)O)CC3)c1C(F)F (stereo partly drawn) [Example 101, 2-((S)-5-chloro-8-((5-(difluoromethyl)-1-methyl-1H-1,2,3-triazol-4-yl)methoxy)-1-((2-oxopyrrolidin-1-yl)methyl)-1,2,3,4-tetrahydroisoquinoline-2-carbonyl)-4,4-difluorocyclopentane-1-carboxylic acid]",6.15
8.32,"Cn1nnc(COc2ccc(Cl)c3c2[C@@H](CN2CCCC2=O)N(C(=O)[C@@H]2CCC[C@]2(C)C(=O)O)CC3)c1C(F)F [Example 102, (1S,2R)-2-((S)-5-chloro-8-((5-(difluoromethyl)-1-methyl-1H-1,2,3-triazol-4-yl)methoxy)-1-((2-oxopyrrolidin-1-yl)methyl)-1,2,3,4-tetrahydroisoquinoline-2-carbonyl)-1-methylcyclopentane-1-carboxylic acid]",9.00
8.17,"Cc1nnc(COc2ccc(Cl)c3c2[C@@H](CN2CCCC2=O)N(C(=O)[C@@H]2CCCC[C@@H]2C(=O)O)CC3)n1C [Example 103, (1S,2R)-2-((S)-5-chloro-8-((4,5-dimethyl-4H-1,2,4-triazol-3-yl)methoxy)-1-((2-oxopyrrolidin-1-yl)methyl)-1,2,3,4-tetrahydroisoquinoline-2-carbonyl) cyclohexane-1-carboxylic acid]",7.17
8.26,"Cn1cc(COc2ccc(Cl)c3c2[C@@H](CN2CCCC2=O)N(C(=O)[C@@H]2CCCC[C@@H]2C(=O)O)CC3)nn1 [Example 104, (1S,2R)-2-((S)-5-Chloro-8-((1-methyl-1H-1,2,3-triazol-4-yl)methoxy)-1-((2-oxopyrrolidin-1-yl)methyl)-1,2,3,4-tetrahydroisoquinoline-2-carbonyl)cyclohexane-1-carboxylic acid]",7.57
8.15,"Cn1nnc(COc2ccc(Cl)c3c2[C@@H](CN2CCCC2=O)N(C(=O)[C@@H]2CCCC[C@]2(F)C(=O)O)CC3)c1C(F)F [Example 105, (1R,2S)-2-((S)-5-Chloro-8-((5-(difluoromethyl)-1-methyl-1H-1,2,3-triazol-4-yl)methoxy)-1-((2-oxopyrrolidin-1-yl)methyl)-1,2,3,4-tetrahydroisoquinoline-2-carbonyl)-1-fluorocyclohexane-1-carboxylic acid]",7.62
8.29,"Cn1cc(COc2ccc(Cl)c3c2[C@@H](CN2CCCC2=O)N(C(=O)[C@@H]2CCCC[C@]2(C)C(=O)O)CC3)nn1 [Example 106, (1S,2R)-2-((S)-5-chloro-8-((1-methyl-1H-1,2,3-triazol-4-yl)methoxy)-1-((2-oxopyrrolidin-1-yl)methyl)-1,2,3,4-tetrahydroisoquinoline-2-carbonyl)-1-methylcyclohexane-1-carboxylic acid]",8.54
8.18,"Cc1c(COc2ccc(Cl)c3c2[C@@H](CN2CCCC2=O)N(C(=O)[C@@H]2CCCC[C@]2(C)C(=O)O)CC3)nnn1C [Example 107, (1S,2R)-2-((S)-5-Chloro-8-((1,5-dimethyl-1H-1,2,3-triazol-4-yl)methoxy)-1-((2-oxopyrrolidin-1-yl)methyl)-1,2,3,4-tetrahydroisoquinoline-2-carbonyl)-1-methylcyclohexane-1-carboxylic acid]",9.46
8.23,"Cn1nnc(COc2ccc(Cl)c3c2[C@@H](CN2CCCC2=O)N(C(=O)[C@@H]2CCCC[C@]2(C)C(=O)O)CC3)c1C(F)(F)F [Example 108, (1S,2R)-2-((S)-5-Chloro-8-((1-methyl-5-(trifluoromethyl)-1H-1,2,3-triazol-4-yl)methoxy)-1-((2-oxopyrrolidin-1-yl)methyl)-1,2,3,4-tetrahydroisoquinoline-2-carbonyl)-1-methylcyclohexane-1-carboxylic acid]",8.82
8.01,"C[C@@H]1CC(=O)N(C[C@@H]2c3c(OCc4nnn(C)c4C(F)F)ccc(Cl)c3CCN2C(=O)[C@@H]2CCC[C@]2(C)C(=O)O)C1 [Example 109, (1S,2R)-2-((S)-5-Chloro-8-((5-(difluoromethyl)-1-methyl-1H-1,2,3-triazol-4-yl)methoxy)-1-(((R)-4-methyl-2-oxopyrrolidin-1-yl)methyl)-1,2,3,4-tetrahydroisoquinoline-2-carbonyl)-1-methylcyclopentane-1-carboxylic acid]",8.13
8.20,"Cn1nnc(COc2ccc(Cl)c3c2[C@@H](CN2CC4(CC4)CC2=O)N(C(=O)[C@@H]2CCC[C@]2(C)C(=O)O)CC3)c1C(F)F [Example 110, (1S,2R)-2-((S)-5-Chloro-8-((5-(difluoromethyl)-1-methyl-1H-1,2,3-triazol-4-yl)methoxy)-1-((6-oxo-5-azaspiro[2.4]heptan-5-yl)methyl)-1,2,3,4-tetrahydroisoquinoline-2-carbonyl)-1-methylcyclopentane-1-carboxylic acid]",8.89
8.21,"C[C@@H]1CC(=O)N(C[C@@H]2c3c(OCc4nnn(C)c4C(F)F)ccc(Cl)c3CCN2C(=O)[C@@H]2CCCC[C@]2(C)C(=O)O)C1 [Example 111, (1S)-2-((S)-5-Chloro-8-((5-(difluoromethyl)-1-methyl-1H-1,2,3-triazol-4-yl)methoxy)-1-1-(((R)-4-methyl-2-oxopyrrolidin-1-yl)methyl)-1,2,3,4-tetrahydroisoquinoline-2-carbonyl)-1-methylcyclohexane-1-carboxylic acid]",8.60
8.03,"C[C@@H]1CCN(C[C@@H]2c3c(OCc4nnn(C)c4C(F)F)ccc(Cl)c3CCN2C(=O)[C@@H]2CCCC[C@]2(C)C(=O)O)C1=O [Example 112, (1S,2R)-2-((S)-5-Chloro-8-((5-(difluoromethyl)-1-methyl-1H-1,2,3-triazol-4-yl)methoxy)-1-(((R)-3-methyl-2-oxopyrrolidin-1-yl)methyl)-1,2,3,4-tetrahydroisoquinoline-2-carbonyl)-1-methylcyclohexane-1-carboxylic acid]",6.55
8.00,"C[C@@H]1CCN(C[C@@H]2c3c(OCc4nnn(C)c4C(F)F)ccc(Cl)c3CCN2C(=O)[C@@H]2CCC[C@]2(C)C(=O)O)C1=O [Example 113, (1S,2R)-2-((1S)-5-Chloro-8-((5-(difluoromethyl)-1-methyl-1H-1,2,3-triazol-4-yl)methoxy)-1-(((R)-3-methyl-2-oxopyrrolidin-1-yl)methyl)-1,2,3,4-tetrahydroisoquinoline-2-carbonyl)-1-methylcyclopentane-1-carboxylic acid]",6.62
8.13,"C[C@H]1CCN(C[C@@H]2c3c(OCc4nnn(C)c4C(F)F)ccc(Cl)c3CCN2C(=O)[C@@H]2CCC[C@]2(C)C(=O)O)C1=O [Example 114, (1S,2R)-2-((1S)-5-Chloro-8-((5-(difluoromethyl)-1-methyl-1H-1,2,3-triazol-4-yl)methoxy)-1-(((S)-3-methyl-2-oxopyrrolidin-1-yl)methyl)-1,2,3,4-tetrahydroisoquinoline-2-carbonyl)-1-methylcyclopentane-1-carboxylic acid]",7.80
8.01,"C[C@H]1CCN(C[C@@H]2c3c(OCc4nnn(C)c4C(F)F)ccc(Cl)c3CCN2C(=O)[C@@H]2CCCC[C@]2(C)C(=O)O)C1=O [Example 115, (1S,2R)-2-((1S)-5-Chloro-8-((5-(difluoromethyl)-1-methyl-1H-1,2,3-triazol-4-yl)methoxy)-1-(((S)-3-methyl-2-oxopyrrolidin-1-yl)methyl)-1,2,3,4-tetrahydroisoquinoline-2-carbonyl)-1-methylcyclohexane-1-carboxylic acid]",8.38
7.14,"C[C@H]1CC(=O)N(C[C@@H]2c3c(OCc4nnn(C)c4C(F)F)ccc(Cl)c3CCN2C(=O)[C@@H]2CCC[C@]2(C)C(=O)O)C1 [Example 116, (1S,2R)-2-((S)-5-chloro-8-((5-(difluoromethyl)-1-methyl-1H-1,2,3-triazol-4-yl)methoxy)-1-(((S)-4-methyl-2-oxopyrrolidin-1-yl)methyl)-1,2,3,4-tetrahydroisoquinoline-2-carbonyl)-1-methylcyclopentane-1-carboxylic acid]",5.72
